In series [1] the test system is GL261 cells. Put plainly: serum-stimulated GL261 invasion (transwell, BME). Conditions: 10 μM; 10% FBS in bottom well, 48 h. The class given is cell-based, murine. The protocol:
FIG. 1A-1C. Semapimod inhibits microglia-stimulated glioblastoma invasion in vitro. (A) Semapimod inhibits microglia-stimulated glioblastoma cell invasion. GL261 cells were embedded in basement membrane extract (BME) with or without microglia in the presence of the indicated concentrations of semapimod, layered in the transwell and incubated for 48 h. The number of invading GL261 cells was determined. Data shown represent the average+/−SEM of 3 independent experiments, performed in duplicate. […] GL261 cells embedded in BME in the presence of the indicated concentration of semapimod, were layered in the transwell and incubated for 48 h. Serum (10% FBS) was added to the bottom well. The number of invading GL261 cells was determined. Data shown represent the average+/−SEM of 3 independent experiments. (C) Semapimod inhibits glioblastoma cell-stimulated microglia invasion. Glioblastoma cells were plated in the bottom well and microglia were embedded in BME in the presence or absence of 200 nM semapimod, layered in the transwell and incubated for 48 h. […]
Invasion Assays: Glioblastoma and microglial cells were labelled with cell tracker green CMFDA and with cell tracker red CMTPX, respectively, and then embedded in 50 μL of 10 mg/mL basement membrane extract (BME) (Trevigen). […] All invaded cells were counted.

Series [2] relates to SK-NEP1 cells with M2 macrophages. The series can be described thus: invasion assay of SK-NEP1 co-cultured with polarized primary macrophages. The class given is cell-based, human. Conditions: co-culture with M2 macrophages, p<0.01. The protocol: FIG. 7. CNI-1493 inhibits tumor invasion in vitro through in the presence of macrophages. When co-cultured with SK-NEP1, macrophages polarized to express the M2 phenotype induced increased tumor cell invasion. This increase in invasion was reversed when co-cultures were exposed to 200 nM CNI-1493. Error bars represent standard deviation.
In vivo, human ES cells (SK-NEP1) were surgically implanted into the left kidney of athymic mice. Mice were treated for 7 weeks with CNI-1493 or vehicle. Lung parenchyma was assessed for metastases utilizing both H&E and immunohistochemistry for the ES-specific CD99 and endothelial-specific CD31 markers. In vitro, primary macrophages isolated from human blood were polarized to M1 or M2 phenotypes by exposure to GM-CSF or M-CSF and activated with IFN-γ and LPS or IL-4. Cells were co-cultured with polarized macrophages and underwent proliferation and invasion assays in the presence or absence of CNI-1493.

For series [3] the following is noted: phase II clinical trial for Crohn's disease; cited from earlier work.
Series [4] concerns GL261 cells. The series can be described thus: colony formation assay of GL261 with or without microglia and irradiation. Type of series: cell-based, murine. Conditions: 200 nM; for effect on microglia-stimulated GL261 survival (colony formation): co-culture with microglia. The protocol: Colony Formation Assay: G1261 cells and microglia were labeled as described for the invasion assay and were co-cultured in serum overnight and then changed to serum free medium for 48 h in the absence of serum at a 1:1 ratio at a density of 5×10^5 per well of a 6-well plate in the presence or absence of 200 nM semapimod. Subsequently, cells were subjected to 3 Gy of X-ray irradiation using a Radionics 160 kV irradiator. Two days after irradiation, cells were trypsinized, counted using a fluorescence microscope and 500 GL261 cells were plated in 6 cm dishes containing 10% FBS MSFM medium. Colony formation was allowed to proceed for 12 days, with medium changes every other day. Subsequently, the cells were fixed in 3.7% formaldehyde in PBS and stained with 0.2% (w/v) sulpharhodamine B (SRB) dye in 1% acetic acid for 20 min. The dishes were washed with 1% glacial acetic acid and allowed to dry. Plates were scanned and processed using Photoshop 5 (Adobe). Images were changed to grayscale and background threshold intensity was set. Colonies were counted automatically by Image J (rsbweb.nih.gov/ij/) and the numbers graphed.
Semapimod inhibits microglia-stimulated glioblastoma cell survival: A critical problem of malignant glioblastoma is its strong resistance to ionizing radiation (IR) and other therapeutic modalities (21). The role of microglia in glioblastoma cell survival has not been studied thus far. It was therefore examined whether microglia can enhance the survival of GL216 cells after IR and whether semapimod interferes with this function. GL261 cells were plated either in the presence or absence of microglia with or without semapimod (200 nM) for 2 days, followed by radiation treatment (3 Gy). Two days later, glioblastoma cell viability was assayed using a standard colony formation assay. […] In the presence of radiation, the stimulatory effect of microglia on glioblastoma cell survival is more marked (50%) and this effect is also abolished by semapimod (FIG. 2B).

Molecules are shown by their SMILES.

As for `C/C(=N\NC(=N)N)c1cc(NC(=O)CCCCCCCCC(=O)Nc2cc(/C(C)=N/NC(=N)N)cc(/C(C)=N/NC(=N)N)c2)cc(/C(C)=N/NC(=N)N)c1` [semapimod], the “effect on serum-stimulated GL261 invasion” value with GL261 cells [1] was “does not affect”. For the same compound, the “effect on M2 macrophage-enhanced ES cellular invasion” value in series [2] is recorded as “strongly decreased”. Moreover, the tolerability in humans entry in series [3] is “very well tolerated”. For the same compound, the “effect on microglia-stimulated GL261 survival (colony formation)” value was “abolished” with GL261 cells [4] (3 Gy radiation) and “abolishes” with GL261 cells [4] (absence of radiation). In the series on GL261 cells [4] (no microglia), the “effect on survival potential of glioblastoma cell monocultures” value is “does not affect”.

The record behind these values is patent publication US9440914B2, “Method for treating glioblastomas and other tumors” (THE FEINSTEIN INSTITUTE FOR MEDICAL RESEARCH, priority 2013, dated 2016).
